# pIC50: −log10 of the molar value.
# Tests used:
# Assay type in all cases: cell-based
# [1] = molecular target: T1, human TLR9 (Homo sapiens, UniProt Q9NR96); assay: TLR9 inhibition reporter assay (HEK-Blue cells, SEAP reporter); details: HEK-Blue cells overexpressing human TLR9; stimulated with ODN2006 5 nM; 22 hour incubation; SEAP readout
# T1 sequence (Q9NR96 26-1032): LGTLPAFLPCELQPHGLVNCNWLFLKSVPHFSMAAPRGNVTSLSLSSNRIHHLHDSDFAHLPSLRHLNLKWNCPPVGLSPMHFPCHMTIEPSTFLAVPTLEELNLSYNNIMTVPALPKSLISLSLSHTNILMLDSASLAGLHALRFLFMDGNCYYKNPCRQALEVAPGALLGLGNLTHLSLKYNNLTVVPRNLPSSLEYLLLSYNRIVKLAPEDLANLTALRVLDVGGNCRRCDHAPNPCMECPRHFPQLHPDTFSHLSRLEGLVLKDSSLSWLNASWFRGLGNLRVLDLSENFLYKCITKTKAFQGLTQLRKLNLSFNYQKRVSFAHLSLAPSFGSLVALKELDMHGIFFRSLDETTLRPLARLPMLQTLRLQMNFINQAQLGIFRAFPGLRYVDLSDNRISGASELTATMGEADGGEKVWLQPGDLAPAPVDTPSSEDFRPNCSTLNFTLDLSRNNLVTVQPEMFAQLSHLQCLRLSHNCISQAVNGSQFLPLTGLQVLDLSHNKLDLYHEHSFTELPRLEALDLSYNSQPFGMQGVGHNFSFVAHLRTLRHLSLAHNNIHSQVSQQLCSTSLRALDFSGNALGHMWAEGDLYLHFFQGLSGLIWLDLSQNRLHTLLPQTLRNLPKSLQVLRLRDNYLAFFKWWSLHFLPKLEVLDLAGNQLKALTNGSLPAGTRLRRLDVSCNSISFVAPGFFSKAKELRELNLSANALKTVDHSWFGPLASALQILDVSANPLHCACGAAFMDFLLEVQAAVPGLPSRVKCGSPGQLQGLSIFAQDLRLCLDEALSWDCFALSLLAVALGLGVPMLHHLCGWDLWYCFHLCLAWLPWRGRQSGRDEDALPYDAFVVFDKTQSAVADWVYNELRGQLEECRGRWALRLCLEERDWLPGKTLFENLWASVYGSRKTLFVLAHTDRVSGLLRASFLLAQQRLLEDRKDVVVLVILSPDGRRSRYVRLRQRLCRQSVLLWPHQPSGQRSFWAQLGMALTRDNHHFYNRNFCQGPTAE
# Method in brief: (§1)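 HEK-Blue cells with NF-κB/AP-1-driven SEAP pre-treated 30 min with compound (0.05 nM–50 μM), then stimulated with gardiquimod 7.5 μM (TLR7), R848 15.9 μM (TLR8) or ODN2006 5 nM (TLR9). SEAP detected after 22 h at 37 °C; percent inhibition relative to agonist-plus-DMSO and known-inhibitor wells.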
# [2] = molecular target: T2, human TLR8 (Homo sapiens, UniProt Q9NR97); assay: TLR8 inhibition reporter assay (HEK-Blue cells, SEAP reporter); details: HEK-Blue cells overexpressing human TLR8; stimulated with R848 15.9 μM; 22 hour incubation; SEAP readout
# T2 sequence (Q9NR97 27-1041): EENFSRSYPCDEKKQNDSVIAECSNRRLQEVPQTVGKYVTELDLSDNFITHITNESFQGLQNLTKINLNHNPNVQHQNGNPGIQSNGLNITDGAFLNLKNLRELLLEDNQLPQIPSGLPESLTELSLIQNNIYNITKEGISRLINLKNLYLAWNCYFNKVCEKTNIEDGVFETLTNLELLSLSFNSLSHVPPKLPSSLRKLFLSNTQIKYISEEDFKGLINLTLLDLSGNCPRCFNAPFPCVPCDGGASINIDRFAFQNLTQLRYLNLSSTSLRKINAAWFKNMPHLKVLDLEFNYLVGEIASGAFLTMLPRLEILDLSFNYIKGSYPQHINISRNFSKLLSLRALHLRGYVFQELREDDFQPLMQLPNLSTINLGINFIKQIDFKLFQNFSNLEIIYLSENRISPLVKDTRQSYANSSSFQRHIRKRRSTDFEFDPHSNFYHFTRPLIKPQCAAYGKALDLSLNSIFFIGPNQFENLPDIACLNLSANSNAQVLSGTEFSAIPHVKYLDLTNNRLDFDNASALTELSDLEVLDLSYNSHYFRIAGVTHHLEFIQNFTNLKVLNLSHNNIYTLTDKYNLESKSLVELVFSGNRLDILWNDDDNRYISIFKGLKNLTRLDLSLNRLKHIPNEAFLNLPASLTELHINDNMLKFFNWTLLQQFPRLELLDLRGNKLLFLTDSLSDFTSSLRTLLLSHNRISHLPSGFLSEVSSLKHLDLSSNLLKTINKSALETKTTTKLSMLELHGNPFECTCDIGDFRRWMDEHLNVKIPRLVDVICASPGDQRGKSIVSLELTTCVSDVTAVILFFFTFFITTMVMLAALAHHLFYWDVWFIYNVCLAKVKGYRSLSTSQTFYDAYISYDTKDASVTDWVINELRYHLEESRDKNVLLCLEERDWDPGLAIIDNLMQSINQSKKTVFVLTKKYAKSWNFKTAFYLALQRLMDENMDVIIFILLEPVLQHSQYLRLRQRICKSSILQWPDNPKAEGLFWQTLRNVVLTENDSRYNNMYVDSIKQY
# Method in brief: as §1
# [3] = molecular target: T3, human TLR7 (Homo sapiens, UniProt Q9NYK1); assay: TLR7 inhibition reporter assay (HEK-Blue cells, SEAP reporter); details: HEK-Blue cells overexpressing human TLR7; stimulated with gardiquimod 7.5 μM; 22 hour incubation; SEAP readout
# T3 sequence (Q9NYK1 27-1049): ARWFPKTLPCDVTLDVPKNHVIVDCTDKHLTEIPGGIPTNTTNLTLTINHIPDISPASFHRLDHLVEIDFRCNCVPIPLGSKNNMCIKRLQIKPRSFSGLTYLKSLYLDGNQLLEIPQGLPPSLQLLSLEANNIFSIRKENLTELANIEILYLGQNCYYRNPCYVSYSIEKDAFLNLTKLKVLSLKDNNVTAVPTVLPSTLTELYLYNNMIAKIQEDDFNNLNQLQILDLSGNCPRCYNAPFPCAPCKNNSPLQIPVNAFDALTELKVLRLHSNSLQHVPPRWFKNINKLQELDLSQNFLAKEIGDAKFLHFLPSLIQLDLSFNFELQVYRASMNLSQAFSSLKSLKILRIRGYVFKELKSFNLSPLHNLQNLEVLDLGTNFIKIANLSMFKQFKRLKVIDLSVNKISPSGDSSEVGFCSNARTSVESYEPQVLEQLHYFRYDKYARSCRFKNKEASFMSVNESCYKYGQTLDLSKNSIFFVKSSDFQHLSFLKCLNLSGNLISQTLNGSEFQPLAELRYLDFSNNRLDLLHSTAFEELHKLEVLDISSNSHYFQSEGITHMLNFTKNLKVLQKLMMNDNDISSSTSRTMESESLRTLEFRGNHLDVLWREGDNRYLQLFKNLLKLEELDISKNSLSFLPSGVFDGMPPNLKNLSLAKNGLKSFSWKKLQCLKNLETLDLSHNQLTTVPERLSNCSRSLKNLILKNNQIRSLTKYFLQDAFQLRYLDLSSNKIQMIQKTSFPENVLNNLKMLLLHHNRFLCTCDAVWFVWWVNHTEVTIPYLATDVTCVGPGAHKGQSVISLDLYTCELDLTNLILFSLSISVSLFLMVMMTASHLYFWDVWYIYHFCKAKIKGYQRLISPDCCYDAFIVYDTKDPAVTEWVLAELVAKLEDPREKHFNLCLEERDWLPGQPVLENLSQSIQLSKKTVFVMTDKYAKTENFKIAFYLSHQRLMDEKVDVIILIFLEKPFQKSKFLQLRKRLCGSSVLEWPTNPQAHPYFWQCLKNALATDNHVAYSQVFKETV
# Method in brief: as §1
pIC50 [1],pIC50 [2],pIC50 [3],SMILES
8.08,< 4.30,5.62,"CS(=O)(=O)c1ccc(-c2cn3cc(C4CCN(C5CCCN(CC6CC6)CC5)CC4)cc(F)c3n2)cc1 (single isomer, unassigned) [Example 128, 6-(1-(1-(cyclopropylmethyl)azepan-4-yl)piperidin-4-yl)-8-fluoro-2-(4-(methylsulfonyl)phenyl)imidazo[1,2-a]pyridine]"
7.25,< 4.30,4.85,"COc1ccc(-c2cn3cc(C4CCN(C5CCN(C6CC6)CC5)CC4)cc(C)c3n2)cc1OC [Example 1, 6-(1′-cyclopropyl-[1,4′-bipiperidin]-4-yl)-2-(3,4-dimethoxyphenyl)-8-methylimidazo [1,2-a]pyridine]"
7.28,< 4.30,5.42,"COc1ccc(-c2cn3cc(C4CCN(C5CCN(C(C)C)CC5)CC4)cc(C)c3n2)cc1OC [Example 2, 2-(3,4-dimethoxyphenyl)-6-(1′-isopropyl-[1,4′-bipiperidin]-4-yl)-8-methylimidazo[1,2-a]pyridine]"
7.49,< 4.30,5.74,"COc1ccc(-c2cn3cc(C4CCN(C5CCN(CC(C)C)CC5)CC4)cc(C)c3n2)cc1OC [Example 3, 2-(3,4-dimethoxyphenyl)-6-(1′-isobutyl-[1,4′-bipiperidin]-4-yl)-8-methylimidazo[1,2-a]pyridine]"
6.84,< 4.30,5.26,"COc1ccc(-c2cn3cc(C4CCN(C5CCN(C6CC6)CC5)CC4)cc(C)c3n2)cc1F [Example 4, 6-(1′-cyclopropyl-[1,4′-bipiperidin]-4-yl)-2-(3-fluoro-4-methoxyphenyl)-8-methylimidazo[1,2-a]pyridine]"
6.78,< 4.30,5.52,"COc1ccc(-c2cn3cc(C4CCN(C5CCN(C(C)C)CC5)CC4)cc(C)c3n2)cc1F [Example 5, 2-(3-fluoro-4-methoxyphenyl)-6-(1′-isopropyl-[1,4′-bipiperidin]-4-yl)-8-methylimidazo[1,2-a]pyridine]"

# More lines, now with the values behind:
SMILES,pIC50 [1],pIC50 [2],pIC50 [3]
"CS(=O)(=O)c1ccc(-c2cn3cc(C4CCN(C5CCCN(C6CCOCC6)CC5)CC4)cc(F)c3n2)cc1 (single isomer, unassigned) [Example 129, 8-fluoro-2-(4-(methylsulfonyl)phenyl)-6-(1-(1-(tetrahydro-2H-pyran-4-yl)azepan-4-yl)piperidin-4-yl)imidazo[1,2-a]pyridine]",7.70,< 4.30,< 4.30
"CS(=O)(=O)c1ccc(-c2cn3cc(C4CCN(C5CCCN(C6CCOCC6)CC5)CC4)cc(F)c3n2)cc1 (single isomer, unassigned) [Example 130, 8-fluoro-2-(4-(methylsulfonyl)phenyl)-6-(1-(1-(tetrahydro-2H-pyran-4-yl)azepan-4-yl)piperidin-4-yl)imidazo[1,2-a]pyridine]",8.00,4.65,< 4.30
"COc1ccc(-c2cn3c(n2)CC[C@H](C2CCN(C4CC5CCC(C4)N5C(C)C)CC2)C3)cc1OC (single isomer, unassigned) [Example 134]",7.17,< 4.30,< 4.30
"COc1ccc(-c2cn3c(n2)CC[C@H](C2CCN(C4CC5CCC(C4)N5C(C)C)CC2)C3)cc1OC (single isomer, unassigned) [Example 135]",7.38,< 4.60,5.41
"COc1ccc(-c2cn3c(n2)CC[C@@H](C2CCN(C4CC5CCC(C4)N5C(C)C)CC2)C3)cc1OC (single isomer, unassigned) [Example 136]",7.11,< 4.60,4.82
"COc1ccc(-c2cn3c(n2)CC[C@@H](C2CCN(C4CC5CCC(C4)N5C(C)C)CC2)C3)cc1OC (single isomer, unassigned) [Example 137]",7.34,< 4.60,5.52
"CS(=O)(=O)c1ccc(-c2cn3c(n2)CC[C@H](C2CCN(C4CC5CCC(C4)N5CC4CC4)CC2)C3)cc1 (single isomer, unassigned) [Example 138]",6.42,< 4.30,< 4.30
"CS(=O)(=O)c1ccc(-c2cn3c(n2)CC[C@H](C2CCN(C4CC5CCC(C4)N5CC4CC4)CC2)C3)cc1 (single isomer, unassigned) [Example 139]",7.48,< 4.30,4.97
"CS(=O)(=O)c1ccc(-c2cn3c(n2)CC[C@@H](C2CCN(C4CC5CCC(C4)N5CC4CC4)CC2)C3)cc1 (single isomer, unassigned) [Example 140]",6.45,< 4.30,< 4.30
"CS(=O)(=O)c1ccc(-c2cn3c(n2)CC[C@@H](C2CCN(C4CC5CCC(C4)N5CC4CC4)CC2)C3)cc1 (single isomer, unassigned) [Example 141]",7.64,< 4.30,4.80

# Reference: patent US12486267B2, “Imidazo[1,2-A]pyridine and [1,2,4]triazolo[1,5-A]pyridine derivatives as TLR9 inhibitors for the treatment of fibrosis” (BRISTOL-MYERS SQUIBB COMPANY, priority 2020, dated 2025)
